Measurements from the NIST ThermoML archive (doi:10.1021/je201102x).

Assay: xn = mol fraction of the nth substance listed
Settings: 101 kPa, Liquid, Vibrating tube method

CCC(=O)O [propanoic acid] + CC(C)CO
mass density [kg/m3]
Settings	283.15 K	293.15 K	303.15 K	313.15 K	323.15 K	333.15 K
x1 = 0.0803	815.48	811.49	807.47	799.27	790.86	782.19
x1 = 0.1616	829.5	825.39	821.25	812.83	804.2	795.34
x1 = 0.2482	844.79	840.55	836.28	827.63	818.79	809.74
x1 = 0.3212	857.93	853.59	849.22	840.38	831.37	822.15
x1 = 0.4008	872.54	868.09	863.61	854.56	845.37	836
x1 = 0.4828	887.9	883.34	878.76	869.5	860.12	850.57
x1 = 0.5602	902.63	897.96	893.27	883.83	874.27	864.57
x1 = 0.6413	918.47	913.69	908.9	899.25	889.49	879.62
x1 = 0.7201	934.21	929.32	924.42	914.55	904.62	894.59
x1 = 0.8016	950.86	945.84	940.81	930.72	920.57	910.32
x1 = 0.8777	966.86	961.72	956.56	946.23	935.86	925.44
x1 = 0.9586	984.47	979.16	973.84	963.22	952.58	941.92

CCC(C)(C)O [2-methylbutan-2-ol] + CC(=O)O
mass density [kg/m3]
Settings	283.15 K	293.15 K	303.15 K	313.15 K	323.15 K	333.15 K
x2 = 0.0794	819.64	814.95	810.22	800.6	790.72	780.53
x2 = 0.0827	820.07	815.38	810.64	801.02	791.14	780.94
x2 = 0.1664	832.07	827.35	822.59	812.92	803.02	792.86
x2 = 0.1672	832.17	827.45	822.69	813.02	803.12	792.96
x2 = 0.2361	842.73	838.01	833.24	823.57	813.68	803.54
x2 = 0.3176	856.35	851.61	846.84	837.15	827.25	817.14
x2 = 0.3914	869.87	865.1	860.3	850.57	840.64	830.51
x2 = 0.4798	887.62	882.8	877.94	868.11	858.1	847.89
x2 = 0.5577	904.94	900.05	895.12	885.16	875.04	864.74
x2 = 0.6427	925.88	920.88	915.86	905.72	895.44	885.01
x2 = 0.7195	946.94	941.83	936.71	926.37	915.92	905.33
x2 = 0.7999	971.66	966.42	961.16	950.58	939.91	929.13
x2 = 0.8769	998.52	993.12	987.72	976.88	965.96	954.98
x2 = 0.96	1031.62	1026.04	1020.47	1009.32	998.13	986.89
